Earlier results on five compounds are cited in EP3645498B1, “PROCESS FOR RECOVERING ACETIC ACID FROM AN AQUEOUS STREAM COMPRISING THE SAME” (Nouryon Chemicals International B.V., priority 2017, dated 2019).

Like-named read-outs stand apart in the source and are kept apart here.

`CCCCCCCCCCCO` [1 -Undecanol, 1-undecanol]: the Solubility in water entry (result in words) was “Insoluble^[10]”. As for `CCCCCCCCCCCCc1ccccc1` [Phenyldodecane, phenyldodecane], the Solubility in water result (result in words) is “Insoluble^[11]”.

Consider `CCCCCCCCN(CCCCCCCC)CCCCCCCC` [TOA, trioctylamine], for which the Solubility in water was < 5ppm^[2].

Consider `CCCCCCCCP(=O)(CCCCCCCC)CCCCCCCC` [TOPO, tri-octylphosphine oxide], for which the Solubility in water entry (result in words) is “Insoluble^[5]”. For `CCCCCCCCCCCCCC` [n-Tetradecane, n-tetradecane], the Solubility in water is 0.0022 mg/L^[8].
